Results from ChEMBL document CHEMBL5046296 (J Med Chem, 2022).
Values after ≈ are worked out from the molar mass of the structure shown.

Key:
[1] = Protein binding in human plasma assessed as unbound fraction at 10 uM measured after 5 hrs by LC-MS/MS analysis; type: ADME, cell-free
[2] = MRT in rat at 2 mg/kg, iv; type: ADME, organism-based; details: in vivo
[3] = target: MAP kinase-interacting serine/threonine-protein kinase 1 (Homo sapiens, UniProt Q9BUB5); assay: Inhibition of MNK1 (unknown origin)
[4] = target: Cytochrome P450 1A2 (Homo sapiens, UniProt P05177); assay: Inhibition of CYP1A2 (unknown origin); type: ADME
[5] = system: Rattus norvegicus; assay: Analgesic activity in streptozotocin induced diabetic peripheral neuropathic mechanical allodynia in overnight fasted Sprague-Dawley rat model assessed as reduction in pain response at 1 mg/kg, po measured after 5.5 hrs post treatment; type: functional; design: scale not given: the % may be the effect or the level left
[6] = Drug concentration in overnight fasted Sprague-Dawley rat spinal cord with streptozotocin induced diabetic peripheral neuropathic mechanical allodynia at 1 mg/kg, po measured at 5.5 hrs post dose; type: ADME, organism-based; details: read-out: Ct
[7] = Cmax in rat at 3 mg/kg, po; type: ADME, organism-based; design: route oral, dose 3 mg/kg; details: in vivo
[8] = Drug concentration in Sprague-Dawley rat spinal cord with CCI induced thermal hyperalgesia at 1 mg/kg, po measured at 5.75 hrs post dose; type: ADME, organism-based; details: read-out: Ct
[9] = Metabolic stability in mouse liver microsomes assessed as CYP450-mediated metabolism by measuring parent compound remaining at 0.5 uM incubated for 10 mins in presence of NADPH by LC-MS/MS analysis; type: ADME; details: read-out: Stability
[10] = target: T1, Cytochrome P450 3A4 (Homo sapiens, UniProt P08684); assay: Inhibition of CYP3A4 (unknown origin) using BFC as substrate; type: ADME
[11] = Clearance in dog at 2 mg/kg, iv; type: ADME, organism-based, Canis lupus familiaris; details: in vivo
[12] = Cmax in overnight fasted Sprague-Dawley rat plasma with streptozotocin induced diabetic peripheral neuropathic mechanical allodynia at 1 mg/kg, po measured at 5.5 hrs post dose; type: ADME, organism-based; design: route oral, time 5.5 hrs, dose 1 mg/kg
[13] = organism: Homo sapiens; assay: Inhibition of calcium channel (unknown origin) at 10 uM by electrophysiological method relative to control
[14] = Ratio of drug concentration in spinal cord to plasma in Sprague-Dawley rat at 10 mg/kg, po measured at 5.25 hrs post dose; type: ADME, organism-based
[15] = target: Solute carrier organic anion transporter family member 1B3 (Homo sapiens, UniProt Q9NPD5); assay: Inhibition of OATP1B3 (unknown origin)
[16] = Metabolic stability in human liver microsomes assessed as half life; type: ADME, Microsome
[17] = system: Rattus norvegicus; assay: Analgesic activity in CCI induced thermal hyperalgesia Sprague-Dawley rat model assessed as efficacy at 1 mg/kg, po measured at 5.75 hrs post dose; type: functional
[18] = Volume of distribution at steady state in rat at 2 mg/kg, iv; type: ADME, organism-based; details: in vivo, read-out: Vdss
[19] = MRT in monkey at 2 mg/kg, iv; type: ADME, organism-based, Macaca mulatta; details: rhesus monkey, in vivo
[20] = Solubility of the compound at pH 6.5 using crystalline form of sample; type: physicochemical
[21] = Protein binding in mouse brain assessed as unbound fraction at 1 uM incubated for 4 hrs by LC-MS/MS analysis; type: ADME, tissue-based
[22] = Lipophilicity, log D of the compound at pH 7.4; type: physicochemical; details: buffer
[23] = target: Solute carrier organic anion transporter family member 1B1 (Homo sapiens, UniProt Q9Y6L6); assay: Inhibition of OATP1B1 (unknown origin)
[24] = Ratio of drug concentration in spinal cord to plasma of overnight fasted Sprague-Dawley rat model with streptozotocin induced diabetic peripheral neuropathic mechanical allodynia at 1 mg/kg, po measured at 5.5 hrs post dose; type: ADME, organism-based
[25] = MRT in dog at 2 mg/kg, iv; type: ADME, organism-based, Canis lupus familiaris; details: in vivo
[26] = target: Cytochrome P450 2C19 (Homo sapiens, UniProt P33261); assay: Inhibition of CYP2C19 (unknown origin); type: ADME
[27] = Ratio of drug concentration in spinal cord to plasma in Sprague-Dawley rat at 3 mg/kg, po measured at 5.25 hrs post dose; type: ADME, organism-based
[28] = Cmax in Sprague-Dawley rat plasma with CCI induced thermal hyperalgesia at 0.3 mg/kg, po measured at 5.75 hrs post dose; type: ADME, organism-based; design: route oral, dose 0.3 mg/kg, time 5.75 hrs
[29] = Cmax in naive Sprague-Dawley rat plasma at 3 mg/kg, po measured at 5.25 hrs post dose; type: ADME, organism-based; design: route oral, time 5.25 hrs, dose 3 mg/kg
[30] = Protein binding in mouse plasma assessed as unbound fraction at 10 uM measured after 5 hrs by LC-MS/MS analysis; type: ADME, cell-free
[31] = target: Serine/threonine-protein kinase LATS2 (Homo sapiens, UniProt Q9NRM7); assay: Inhibition of LATS2 (unknown origin)
[32] = target: T1, Cytochrome P450 3A4; assay: Time dependent inhibition of CYP3A4 (unknown origin) using MDZ as substrate measured at 5 mins; type: ADME
[33] = Drug concentration in overnight fasted Sprague-Dawley rat spinal cord with streptozotocin induced diabetic peripheral neuropathic mechanical allodynia at 3 mg/kg, po measured at 5.5 hrs post dose; type: ADME, organism-based; details: read-out: Ct
[34] = Cmax in naive Sprague-Dawley rat plasma at 10 mg/kg, po measured at 5.25 hrs post dose; type: ADME, organism-based; design: route oral, dose 10 mg/kg, time 5.25 hrs
[35] = system: Rattus norvegicus; assay: Analgesic activity in CCI induced thermal hyperalgesia in Sprague-Dawley rat assessed as reversal of thermal hyperalgesia by measuring reduction in paw withdrawal latency at 1 mg/kg, po measured after 5.5 hrs by Hargreaves test relative to control; type: functional; design: scale not given: the % may be the effect or the level left
[36] = Metabolic stability in rat liver microsomes assessed as CYP450-mediated metabolism by measuring parent compound remaining at 0.5 uM incubated for 10 mins in presence of NADPH by LC-MS/MS analysis; type: ADME; details: read-out: Stability
[37] = Cmax in overnight fasted Sprague-Dawley rat plasma with streptozotocin induced diabetic peripheral neuropathic mechanical allodynia at 0.1 mg/kg, po measured at 5.5 hrs post dose; type: ADME, organism-based; design: route oral, time 5.5 hrs, dose 0.1 mg/kg
[38] = Ratio of drug concentration in spinal cord to plasma in CCI induced thermal hyperalgesia Sprague-Dawley rat model at 0.1 mg/kg, po measured at 5.75 hrs post dose; type: ADME, organism-based
[39] = system: Rattus norvegicus; assay: Analgesic activity in CCI induced thermal hyperalgesia in Sprague-Dawley rat assessed as reversal of thermal hyperalgesia by measuring reduction in paw withdrawal latency at 0.3 mg/kg, po measured after 5.5 hrs by Hargreaves test relative to control; type: functional; design: scale not given: the % may be the effect or the level left
[40] = Volume of distribution at steady state in dog at 2 mg/kg, iv; type: ADME, organism-based, Canis lupus familiaris; details: in vivo, read-out: Vdss
[41] = Drug concentration in naive Sprague-Dawley rat spinal cord at 30 mg/kg, po measured at 5.25 hrs post dose; type: ADME, organism-based; details: read-out: Ct
[42] = target: Cytochrome P450 2C9 (Homo sapiens, UniProt P11712); assay: Inhibition of CYP2C9 (unknown origin); type: ADME
[43] = Cmax in Sprague-Dawley rat plasma with CCI induced thermal hyperalgesia at 0.1 mg/kg, po measured at 5.75 hrs post dose; type: ADME, organism-based; design: route oral, dose 0.1 mg/kg, time 5.75 hrs
[44] = Tmax in dog at 3 mg/kg, po; type: ADME, organism-based, Canis lupus familiaris; details: in vivo
[45] = system: Rattus norvegicus; assay: Analgesic activity in streptozotocin induced diabetic peripheral neuropathic mechanical allodynia in overnight fasted Sprague-Dawley rat model assessed as efficacy at 0.3 mg/kg, po measured at 5.5 hrs post dose; type: functional
[46] = Cmax in Sprague-Dawley rat plasma with CCI induced thermal hyperalgesia at 1 mg/kg, po measured at 5.75 hrs post dose; type: ADME, organism-based; design: route oral, dose 1 mg/kg, time 5.75 hrs
[47] = Volume of distribution at steady state in monkey at 2 mg/kg, iv; type: ADME, organism-based, Macaca mulatta; details: rhesus monkey, in vivo, read-out: Vdss

T1 sequence (P08684 whole entry): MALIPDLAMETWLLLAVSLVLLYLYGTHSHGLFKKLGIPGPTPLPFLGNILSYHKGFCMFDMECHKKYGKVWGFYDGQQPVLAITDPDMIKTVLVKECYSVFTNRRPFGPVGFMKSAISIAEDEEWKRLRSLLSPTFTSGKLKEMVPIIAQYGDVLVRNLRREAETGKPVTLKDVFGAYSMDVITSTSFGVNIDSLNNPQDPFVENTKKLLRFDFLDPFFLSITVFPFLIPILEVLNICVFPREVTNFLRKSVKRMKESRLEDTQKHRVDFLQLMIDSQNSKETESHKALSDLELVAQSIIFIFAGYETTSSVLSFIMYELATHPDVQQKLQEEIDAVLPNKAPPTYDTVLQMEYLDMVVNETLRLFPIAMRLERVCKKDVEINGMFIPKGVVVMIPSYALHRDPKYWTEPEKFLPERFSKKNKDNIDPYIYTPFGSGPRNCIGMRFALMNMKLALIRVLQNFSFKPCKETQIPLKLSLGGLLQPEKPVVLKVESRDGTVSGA
Sequence of Solute carrier organic anion transporter family member 1B3 (Q9NPD5 whole entry): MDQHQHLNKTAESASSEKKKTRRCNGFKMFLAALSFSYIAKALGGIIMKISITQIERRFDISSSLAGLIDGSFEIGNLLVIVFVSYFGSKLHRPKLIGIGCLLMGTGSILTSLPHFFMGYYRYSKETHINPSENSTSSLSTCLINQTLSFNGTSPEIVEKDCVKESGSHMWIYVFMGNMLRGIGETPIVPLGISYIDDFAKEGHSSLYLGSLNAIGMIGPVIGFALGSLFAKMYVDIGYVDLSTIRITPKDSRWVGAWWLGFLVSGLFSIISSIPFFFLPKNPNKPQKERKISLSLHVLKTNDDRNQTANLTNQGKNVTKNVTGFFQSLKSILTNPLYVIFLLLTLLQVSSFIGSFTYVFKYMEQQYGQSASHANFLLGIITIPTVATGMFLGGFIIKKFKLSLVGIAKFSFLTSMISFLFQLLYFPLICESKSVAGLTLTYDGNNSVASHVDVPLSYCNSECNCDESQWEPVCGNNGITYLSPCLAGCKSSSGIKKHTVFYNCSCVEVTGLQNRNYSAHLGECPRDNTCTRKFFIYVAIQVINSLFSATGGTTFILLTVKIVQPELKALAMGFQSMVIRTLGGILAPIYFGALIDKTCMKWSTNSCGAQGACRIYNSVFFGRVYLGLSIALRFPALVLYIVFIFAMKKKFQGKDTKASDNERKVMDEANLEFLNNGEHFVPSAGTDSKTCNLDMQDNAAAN
Sequence of MAP kinase-interacting serine/threonine-protein kinase 1 (Q9BUB5 whole entry): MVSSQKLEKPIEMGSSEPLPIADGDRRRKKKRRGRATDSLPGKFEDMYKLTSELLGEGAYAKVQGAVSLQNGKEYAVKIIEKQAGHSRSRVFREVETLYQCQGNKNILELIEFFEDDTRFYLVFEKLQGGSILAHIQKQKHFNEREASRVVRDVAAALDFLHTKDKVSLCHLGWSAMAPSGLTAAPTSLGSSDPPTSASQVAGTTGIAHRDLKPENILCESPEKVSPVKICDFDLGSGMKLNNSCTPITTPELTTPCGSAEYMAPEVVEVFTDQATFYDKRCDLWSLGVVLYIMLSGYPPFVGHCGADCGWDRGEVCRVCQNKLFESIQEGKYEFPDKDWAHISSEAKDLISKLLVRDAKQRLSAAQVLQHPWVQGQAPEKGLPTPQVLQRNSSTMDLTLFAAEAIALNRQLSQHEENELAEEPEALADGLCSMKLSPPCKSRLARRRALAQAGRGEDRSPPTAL
Sequence of Serine/threonine-protein kinase LATS2 (Q9NRM7 whole entry): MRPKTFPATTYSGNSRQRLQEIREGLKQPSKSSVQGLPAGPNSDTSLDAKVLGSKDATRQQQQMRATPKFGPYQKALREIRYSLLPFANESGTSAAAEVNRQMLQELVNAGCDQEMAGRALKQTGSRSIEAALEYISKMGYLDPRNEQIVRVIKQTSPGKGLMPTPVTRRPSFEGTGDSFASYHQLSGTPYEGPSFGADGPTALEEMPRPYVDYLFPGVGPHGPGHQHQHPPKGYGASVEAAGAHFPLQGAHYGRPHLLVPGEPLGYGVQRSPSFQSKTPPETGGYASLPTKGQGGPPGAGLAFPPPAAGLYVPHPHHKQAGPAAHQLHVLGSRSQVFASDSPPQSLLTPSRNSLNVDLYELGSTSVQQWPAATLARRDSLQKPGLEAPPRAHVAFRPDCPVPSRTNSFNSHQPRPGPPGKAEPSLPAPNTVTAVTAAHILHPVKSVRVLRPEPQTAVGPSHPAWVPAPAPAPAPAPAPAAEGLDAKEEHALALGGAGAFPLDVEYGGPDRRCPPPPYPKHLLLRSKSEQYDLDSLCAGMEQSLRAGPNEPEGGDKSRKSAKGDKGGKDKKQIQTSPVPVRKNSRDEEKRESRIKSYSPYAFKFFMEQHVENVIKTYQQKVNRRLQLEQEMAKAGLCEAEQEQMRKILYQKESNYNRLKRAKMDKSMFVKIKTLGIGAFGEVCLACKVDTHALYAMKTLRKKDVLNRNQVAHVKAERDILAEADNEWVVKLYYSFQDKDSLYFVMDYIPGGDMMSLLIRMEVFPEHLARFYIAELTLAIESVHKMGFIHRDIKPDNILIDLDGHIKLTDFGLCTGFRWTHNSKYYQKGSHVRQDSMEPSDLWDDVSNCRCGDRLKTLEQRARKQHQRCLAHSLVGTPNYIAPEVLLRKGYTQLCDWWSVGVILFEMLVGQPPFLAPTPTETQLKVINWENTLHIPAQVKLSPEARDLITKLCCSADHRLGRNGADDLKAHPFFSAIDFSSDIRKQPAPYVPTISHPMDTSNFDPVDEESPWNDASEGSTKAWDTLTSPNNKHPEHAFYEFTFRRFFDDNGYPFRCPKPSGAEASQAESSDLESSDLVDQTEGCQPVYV
Sequence of Cytochrome P450 1A2 (P05177 whole entry): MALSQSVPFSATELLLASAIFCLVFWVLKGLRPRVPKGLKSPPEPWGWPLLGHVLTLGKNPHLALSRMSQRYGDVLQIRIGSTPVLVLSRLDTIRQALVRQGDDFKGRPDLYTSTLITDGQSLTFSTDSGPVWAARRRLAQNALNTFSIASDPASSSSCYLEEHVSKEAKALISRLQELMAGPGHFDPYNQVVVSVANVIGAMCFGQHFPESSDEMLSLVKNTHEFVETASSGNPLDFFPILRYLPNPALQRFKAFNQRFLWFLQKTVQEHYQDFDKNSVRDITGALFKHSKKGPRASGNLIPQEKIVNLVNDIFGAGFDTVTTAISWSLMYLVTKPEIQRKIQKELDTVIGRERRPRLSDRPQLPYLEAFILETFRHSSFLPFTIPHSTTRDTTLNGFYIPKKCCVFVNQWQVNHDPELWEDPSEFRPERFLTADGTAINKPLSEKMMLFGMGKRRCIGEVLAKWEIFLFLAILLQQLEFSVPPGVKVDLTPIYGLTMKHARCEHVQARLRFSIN
Sequence of Cytochrome P450 2C9 (P11712 whole entry): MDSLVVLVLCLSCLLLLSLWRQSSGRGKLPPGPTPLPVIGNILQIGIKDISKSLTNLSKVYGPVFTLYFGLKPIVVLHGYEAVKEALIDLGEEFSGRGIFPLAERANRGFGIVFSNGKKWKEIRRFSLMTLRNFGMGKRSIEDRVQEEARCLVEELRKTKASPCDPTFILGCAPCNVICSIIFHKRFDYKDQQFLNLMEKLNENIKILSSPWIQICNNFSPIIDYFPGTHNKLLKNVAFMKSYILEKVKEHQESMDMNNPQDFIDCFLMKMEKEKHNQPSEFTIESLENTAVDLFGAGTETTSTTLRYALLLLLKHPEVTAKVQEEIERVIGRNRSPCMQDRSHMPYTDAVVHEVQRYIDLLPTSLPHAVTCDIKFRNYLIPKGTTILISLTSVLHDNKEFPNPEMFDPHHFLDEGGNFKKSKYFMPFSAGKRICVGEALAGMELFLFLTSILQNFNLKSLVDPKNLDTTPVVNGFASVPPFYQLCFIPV
Sequence of Cytochrome P450 2C19 (P33261 whole entry): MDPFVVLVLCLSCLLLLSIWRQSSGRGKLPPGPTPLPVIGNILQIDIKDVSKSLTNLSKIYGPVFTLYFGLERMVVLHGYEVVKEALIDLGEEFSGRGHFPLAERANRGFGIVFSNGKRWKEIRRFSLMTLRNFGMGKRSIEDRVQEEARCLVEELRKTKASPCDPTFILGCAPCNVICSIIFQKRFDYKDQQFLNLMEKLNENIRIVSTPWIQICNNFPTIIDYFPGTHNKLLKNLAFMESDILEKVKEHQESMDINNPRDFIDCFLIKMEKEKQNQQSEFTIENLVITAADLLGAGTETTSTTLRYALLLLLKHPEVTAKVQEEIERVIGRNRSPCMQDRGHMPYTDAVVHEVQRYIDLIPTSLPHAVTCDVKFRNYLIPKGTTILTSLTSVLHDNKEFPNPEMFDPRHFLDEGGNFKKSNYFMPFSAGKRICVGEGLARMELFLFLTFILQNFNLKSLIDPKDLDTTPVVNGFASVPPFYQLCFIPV
Sequence of Solute carrier organic anion transporter family member 1B1 (Q9Y6L6 whole entry): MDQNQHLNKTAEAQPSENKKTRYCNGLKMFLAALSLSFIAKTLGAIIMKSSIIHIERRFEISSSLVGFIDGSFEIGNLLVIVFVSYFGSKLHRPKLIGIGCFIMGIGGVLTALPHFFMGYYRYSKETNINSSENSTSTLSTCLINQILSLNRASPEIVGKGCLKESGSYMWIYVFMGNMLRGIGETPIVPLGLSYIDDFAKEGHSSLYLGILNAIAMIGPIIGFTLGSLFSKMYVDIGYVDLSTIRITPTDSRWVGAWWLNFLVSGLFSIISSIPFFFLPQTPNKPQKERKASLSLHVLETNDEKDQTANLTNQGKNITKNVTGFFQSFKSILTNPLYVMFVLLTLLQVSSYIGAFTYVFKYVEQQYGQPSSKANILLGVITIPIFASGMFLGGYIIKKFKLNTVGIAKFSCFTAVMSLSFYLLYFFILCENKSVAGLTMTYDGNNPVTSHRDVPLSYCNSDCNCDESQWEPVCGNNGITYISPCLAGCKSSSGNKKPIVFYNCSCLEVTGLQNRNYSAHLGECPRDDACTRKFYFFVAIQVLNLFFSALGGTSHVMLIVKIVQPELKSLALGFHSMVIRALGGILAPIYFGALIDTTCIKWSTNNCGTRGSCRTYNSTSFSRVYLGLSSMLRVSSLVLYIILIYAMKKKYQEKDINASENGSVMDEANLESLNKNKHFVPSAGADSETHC

## CC(C)C[C@](C)(N)COc1ccc(-c2ccnc(C(F)F)c2)nc1C(F)F [PILAVAPADIN]
[1]
  fraction unbound at 5 h, 10 µM: 0.085
[2]
  MRT: 11.6 h
[3]
  IC50: 0.16 µM
[4]
  IC50: > 20 µM
[5]
  Activity: >60%
[6]
  concentration at 5.5 h: 852 nM
[7]
  Cmax: 60 ng/mL
[8]
  concentration at 5.75 h: 1220 nM
[9]
  remaining at 10 min, 0.5 µM: 86%
[10]
  IC50: > 20 µM
[11]
  clearance: 28.5 mL/min/kg
[12]
  Cmax: 92 nM
[13]
  inhibition: 40%
[14]
  Kp at 5.25 h: 21
[15]
  IC50: > 30 µM
[16]
  half-life: > 2 h
[17]
  Efficacy: 97%
[18]
  Vd: 19.6 L/kg
[19]
  MRT: 8.5 h
[20]
  solubility thermodynamic: 440 µg/mL (≈ 1140 µM)
[21]
  fraction unbound at 4 h, 1 µM: 0.007
[22]
  logD: 1.48
[23]
  IC50: > 30 µM
[24]
  Kp at 5.5 h: 9
[25]
  MRT: 6.9 h
[26]
  IC50: > 20 µM
[27]
  Kp at 5.25 h: 19
[28]
  Cmax: 19 nM
[29]
  Cmax: 200 nM
[30]
  fraction unbound at 5 h, 10 µM: 0.046
[31]
  IC50: 0.66 µM
[32]
  IC50: > 40 µM
[33]
  concentration at 5.5 h: 2370 nM
[34]
  Cmax: 780 nM
[35]
  Activity: 97%
[36]
  remaining at 10 min, 0.5 µM: 92%
[37]
  Cmax: 6 nM
[38]
  Kp at 5.75 h: 43
[39]
  Activity: 25%
[40]
  Vd: 11.8 L/kg
[41]
  concentration at 5.25 h: 32600 nM
[42]
  IC50: > 20 µM
[43]
  Cmax: 5 nM
[44]
  Tmax: 1.3 h
[45]
  Efficacy: 20%
[46]
  Cmax: 63 nM
[47]
  Vd: 20.6 L/kg
